Our source for the Ki values is patent US6586468B1, “ω-substituted phenyl-prostaglandin E derivatives and drugs containing the same as the active ingredient” (Ono Pharmaceutical Co., Ltd., priority 1998, dated 2003).

The target in one assay is T1, EP4 (Mus musculus, UniProt P32240).
T1 construct: expressed in transfected cells; host or cells: CHO cells (membrane fraction)
Kind of assay: Binding assay using expression CHO cell of prostanoid receptor subtype, [3H]-PGE2 binding inhibition (EP4). The note with it: membrane fraction of CHO cells expressing mouse EP4; [3H]-PGE2 2.5 nM; Ki=IC50/(1+([C]/Kd)); read-out: Dissociation Constant Ki (μM) EP4. The method, then:
(§1) (i) Binding assay using Expression cell of prostanoids receptor subtype
(§2) The preparation of membrane fraction was carried out according to the method of Sugimoto et al. [J. Biol. Chem., 267, 6463-6466 (1992)], using expression CHO cell of the prostanoids receptor subtype (mouse EP1, EP2, EP3α, EP4 and human IP).
(§3) The standard assay mixture containing membrane fraction (0.5 mg/ml) and [^3H]-PGE2 in a final volume of 200 μl was incubated for 1 hour at room temperature. The reaction was terminated by addition of ice-cooled buffer (3 ml). The mixture was filtered through a GF/B glass filter under reduced pressure. The radioactivity associated with the filter was measured by liquid scintillation counting.
(§4) Kd and Bmax values were determined from Scatchard plots [Ann. N. Y. Acad. Sci., 51, 660 (1949)]. Non-specific binding was calculated as the binding in the presence of an excess (2.5 μM) of unlabeled PGE2. In the measurement of ^3H-PGE2 binding inhibitory activity, [3H]-PGE2 (2.5 nM) and various concentrations of the compounds of the present invention were added. The following buffer was used in all reactions.
(§5) Buffer; 10 mM potassium phosphate (pH 6.0), 1 mM EDTA, 10 mM MgCl2, 0.1 M NaCl.
(§6) The dissociation constant Ki (μM) of each compound was calculated by the following equation.

The next assay addresses T2, EP3α (Mus musculus, UniProt P30557).
T2 construct: expressed in transfected cells; host or cells: CHO cells (membrane fraction)
T2 sequence (P30557 1-365): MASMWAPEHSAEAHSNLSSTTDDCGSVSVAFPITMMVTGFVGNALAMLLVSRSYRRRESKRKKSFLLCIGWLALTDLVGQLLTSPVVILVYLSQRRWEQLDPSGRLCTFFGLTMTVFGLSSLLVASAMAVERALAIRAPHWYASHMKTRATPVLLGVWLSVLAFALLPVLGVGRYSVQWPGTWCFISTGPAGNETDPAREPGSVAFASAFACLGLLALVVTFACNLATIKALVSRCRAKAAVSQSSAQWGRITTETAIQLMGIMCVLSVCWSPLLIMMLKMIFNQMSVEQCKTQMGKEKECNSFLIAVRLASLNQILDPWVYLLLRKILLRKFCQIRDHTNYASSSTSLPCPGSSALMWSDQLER
In words: Binding assay using expression CHO cell of prostanoid receptor subtype, [3H]-PGE2 binding inhibition (EP3α). Particulars: membrane fraction of CHO cells expressing mouse EP3α; [3H]-PGE2 2.5 nM; Ki=IC50/(1+([C]/Kd)); read-out: Dissociation Constant Ki (μM) EP3α. The method, then: as §1, §2, §3, §4, §5, §6

By Ki is commonly meant the equilibrium dissociation constant of an inhibitor or competing ligand from its target.

T1 sequence (P32240 whole entry): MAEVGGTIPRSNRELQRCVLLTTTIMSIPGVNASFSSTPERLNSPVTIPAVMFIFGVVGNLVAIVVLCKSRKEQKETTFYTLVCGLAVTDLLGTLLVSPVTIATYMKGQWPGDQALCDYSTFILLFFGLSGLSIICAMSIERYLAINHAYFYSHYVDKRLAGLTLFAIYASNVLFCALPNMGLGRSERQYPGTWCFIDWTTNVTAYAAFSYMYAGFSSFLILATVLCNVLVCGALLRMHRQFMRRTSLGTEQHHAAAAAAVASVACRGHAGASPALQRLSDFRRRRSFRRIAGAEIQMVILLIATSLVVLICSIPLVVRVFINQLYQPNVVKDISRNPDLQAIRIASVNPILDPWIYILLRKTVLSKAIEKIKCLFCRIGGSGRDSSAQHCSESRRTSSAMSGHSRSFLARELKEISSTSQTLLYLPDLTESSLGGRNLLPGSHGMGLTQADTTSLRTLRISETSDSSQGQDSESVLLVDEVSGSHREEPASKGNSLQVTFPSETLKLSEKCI

For the molecule `CCOCc1cccc(C[C@H](O)/C=C/[C@H]2[C@H](O)CC(=O)[C@@H]2C/C=C\CCCC(=O)O)c1` [2 (11), (11α,15α)-9-oxo-11,15-Dihydroxy-16-(3-ethoxymethylphenyl)-17,18,19,20-tetranorprost-5Z,13E-dienoic Acid], the Ki at EP4 stood at 0.01 µM; on EP3α it was 0.54 µM.
Consider `Cc1ccc(C[C@H](O)/C=C/[C@H]2[C@H](O)CC(=O)[C@@H]2C/C=C\CCCC(=O)O)cc1` [reference compound], for which the Ki on EP4 is 0.032 µM; on EP3α, 0.011 µM.
As for `O=C(O)CCCCCC[C@H]1C(=O)C[C@@H](O)[C@@H]1/C=C/[C@@H](O)Cc1cccc(CCF)c1` [2 (1), (11α,15α)-9-oxo-11,15-Dihydroxy-16-[3-(2-fluoroethyl)phenyl]-17,18,19,20-tetranorprost-13E-enoic Acid], the Ki was 0.0016 µM on EP4 and 0.12 µM on EP3α.
As for `COc1ccc(C[C@H](O)/C=C/[C@H]2[C@H](O)CC(=O)[C@@H]2C/C=C\CCCC(=O)O)cc1` [reference compound], the results for the inhibition constant (Ki) at EP4 and at EP3α were 0.067 µM and 0.048 µM, respectively.
With `COCc1cccc(C[C@H](O)/C=C/[C@H]2[C@H](O)CC(=O)[C@@H]2CCCCCCC(=O)O)c1` [Example 2, (11α,15α)-9-oxo-11,15-Dihydroxy-16-(3-methoxymethylphenyl)-17,18,19,20-tetranorprost-13E-enoic Acid], the results for the Ki at EP4 and on EP3α were 0.006 µM and 0.82 µM, respectively.
For the molecule `COCc1cccc(C[C@H](O)/C=C/[C@H]2CCC(=O)[C@@H]2C/C=C\CCCC(=O)O)c1` [2 (15), (15α)-9-oxo-15-Hydroxy-16-(3-methoxymethylphenyl)-17,18,19,20-tetranorprost-5Z,13E-dienoic Acid], the Ki at EP4 is 0.0026 µM; at EP3α, 1.4 µM.
For the molecule `CCCOCc1cccc(CC(O)/C=C/[C@@H]2[C@@H](C/C=C\CCCC(=O)O)[C@H](F)C[C@H]2O)c1` (stereo partly drawn) [4 (12), (9β,11α,15ξ)-9-Fluoro-11,15-dihydroxy-16-(3-propyloxymethylphenyl)-17,18,19,20-tetranorprost-5Z,13E-dienoic Acid], the results for the Ki at EP4 and at EP3α were 0.0059 µM and 0.35 µM, respectively.
Take `CCOCc1cccc(C[C@H](O)/C=C/[C@@H]2[C@@H](C/C=C\CCCC(=O)O)[C@H](Cl)C[C@H]2O)c1` [8 (6), (9β,11α,15α)-9-Chloro-11,15-dihydroxy-16-(3-ethoxymethylphenyl)-17,18,19,20-tetranorprost-5Z,13E-dienoic Acid]: the Ki on EP4 worked out at 0.0015 µM; on EP3α it was 0.04 µM.
As for `Cc1cc(C[C@H](O)/C=C/[C@H]2[C@H](O)CC(=O)[C@@H]2CCCCCCC(=O)O)ccc1O` [2 (4), (11α,15α)-9-oxo-11,15-dihydroxy-16-(3-methyl-4-hydroxyphenyl)-17,18,19,20-tetranorprost-13E-enoic Acid], the Ki at EP4 is 0.003 µM; on EP3α, more than 10 µM.
With `COCc1cc(CC(O)/C=C/[C@@H]2[C@@H](C/C=C\CCCC(=O)O)[C@H](Cl)C[C@H]2O)ccc1O` (stereo partly drawn) [Example 4, (9β,11α,15ξ)-9-Chloro-11,15-dihydroxy-16-(3-methoxymethyl-4-hydroxyphenyl)-17,18,19,20-tetranorprost-5Z,13E-dienoic Acid], the Ki at EP4 worked out at 0.0036 µM; on EP3α, 3.2 µM.
Turning to `CCOCc1cccc(CC(O)/C=C/[C@H]2[C@H](O)CC(=O)[C@@H]2CCc2ccc(C(=O)O)cc2)c1` (stereo partly drawn) [5 (12), (11α,15α)-9-oxo-11,15-Dihydroxy-16-(3-ethoxymethylphenyl)-1,6-(1,4-phenylene)-2,3,4,5,17,18,19,20-octanorprost-13E-enoic Acid], the results for the Ki on EP4 and on EP3α were 0.008 µM and 6 µM, respectively.
